The values that follow come from patent publication US20140206608A1 (priority 2012, published 2014).

The target in data set [1] is T1, human GLP-1 receptor (hGLP-1 R) (Homo sapiens, UniProt P43220).
T1 construct: expressed in transfected cells; host or cells: HEK-293
In words: cAMP response of HEK-293 cells stably expressing human GLP-1 receptor (HTRF). The format is cell-based. The following applies: EC50 hGLP-1 R, Table 7; cAMP formation. Here is the method:
(§1) cAMP content of cells was determined using a kit from Cisbio Corp. (cat. no. 62AM4PEC) based on HTRF (Homogenous Time Resolved Fluorescence). For preparation, cells were split into T175 culture flasks and grown overnight to near confluency in medium (DMEM/10% FBS). Medium was then removed and cells washed with PBS lacking calcium and magnesium, followed by proteinase treatment with accutase (Sigma-Aldrich cat. no. A6964). Detached cells were washed and resuspended in assay buffer (1×HBSS; 20 mM HEPES, 0.1% BSA, 2 mM IBMX) and cellular density determined. They were then diluted to 400000 cells/ml and 25 μl-aliquots dispensed into the wells of 96-well plates. For measurement, 25 μl of test compound in assay buffer was added to the wells, followed by incubation for 30 minutes at room temperature.
A general note: In TR-FRET formats the signal depends on donor and acceptor labels being close together.

The target of data set [2] is T2, human GIP receptor (hGIP R) (Homo sapiens, UniProt P48546).
T2 construct: expressed in transfected cells; host or cells: HEK-293
T2 sequence (P48546 22-466): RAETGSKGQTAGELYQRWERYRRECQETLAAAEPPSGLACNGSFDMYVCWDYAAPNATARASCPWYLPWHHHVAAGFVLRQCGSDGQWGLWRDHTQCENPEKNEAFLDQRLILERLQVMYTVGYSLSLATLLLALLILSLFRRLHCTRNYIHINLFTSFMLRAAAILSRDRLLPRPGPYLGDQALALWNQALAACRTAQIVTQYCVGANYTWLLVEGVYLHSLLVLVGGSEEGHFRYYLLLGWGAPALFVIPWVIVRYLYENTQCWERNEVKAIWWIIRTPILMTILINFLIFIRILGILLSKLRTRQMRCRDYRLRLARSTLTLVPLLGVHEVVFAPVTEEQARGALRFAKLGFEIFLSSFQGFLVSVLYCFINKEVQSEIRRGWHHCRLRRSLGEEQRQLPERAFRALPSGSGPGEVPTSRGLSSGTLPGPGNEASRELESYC
The data set is described as follows: cAMP response of HEK-293 cells stably expressing human GIP receptor (HTRF). The format is cell-based. How it is done:
as §1

Data set [3] in a line: Solubility testing in buffer systems (HPLC-UV). The format is physicochemical. The conditions noted are these: buffer system, target concentration 1.0 mg/mL.
The nature of data set [4]: Chemical stability in solution, 7 days at 25° C. (% remaining peptide). The format is physicochemical. The following applies: % remaining peptide after 7 days at 25° C. The text has this:
The chemical stability is expressed as “% remaining peptide”.

In data set [5] the test system is plasmin. In words: Enzymatic stability testing versus plasmin. The conditions noted are these: human, human recombinant plasmin, pH 8.3; % of degradation after 120 min; 2 μM peptide, 37° C.; read-out: Lability versus enzymatic degradation, Plasmin. The format is in vitro ADME. How it is done: (§2) The reaction was stopped by addition of ethanol. The samples were analyzed by LC-MS/MS. […] The metabolic lability is given as % of degradation.

Data set [6] has as its system α-chymotrypsin. In words: Enzymatic stability testing versus α-chymotrypsin. The format is in vitro ADME. The following applies: human, human recombinant α-chymotrypsin, pH 8.3; % of degradation after 120 min; 2 μM peptide, 37° C.; read-out: Lability versus enzymatic degradation, α-Chymotrypsin. Here is the method:
as §2

The nature of data set [7]: Subchronic effect on body weight in female diet-induced obese (DIO) C57BL/6NCrl mice (method 2). The format is in vivo. The conditions noted are these: 3 weeks; for Overall weight change: mean ± SEM. How it is done: Female C57BL/6NCrl mice were housed in groups in a specific pathogen-free barrier facility on a 12 h light/dark cycle with free access to water and high-fat diet. After 14 weeks on high-fat diet, mice were stratified to treatment groups (n=8), so that each group had similar mean body weight.
An aged-matched group with ad libitum access to standard chow and water was included as standard control group.
Before the experiment, mice were subcutaneously (s.c.) injected with vehicle solution and weighed for 3 days to acclimate them to the procedures.
Body weight was recorded daily.
Statistical analyses were performed with Everstat 6.0 by repeated measures two-way ANOVA and Dunnett's post-hoc analyses (glucose profile) and 1-way-ANOVA, followed by Dunnett's post-hoc test (body weight, body fat). Differences versus vehicle-treated DIO control mice were considered statistically significant at the p<0.05 level.

The test system of data set [8] is female NMRI-mice. In words: Gastric emptying and intestinal passage in female NMRI-mice. The format is in vivo. How it is done: Female NMRI-mice of a body weight between 20 and 30 g were used. Mice were adapted to housing conditions for at least one week.
Mice were overnight fasted, while water remained available all the time. On the study day, mice were weighed, single-caged and allowed access to 500 mg of feed for 30 min, while water was removed. At the end of the 30 min feeding period, remaining feed was removed and weighed. Then, the test compound/reference compound or its vehicle in the control group was administered subcutaneously. 60 min later, to allow the compound to reach relevant plasma exposure, a coloured, non-caloric bolus was instilled via gavage into the stomach. After another 30 min, the animals were sacrificed and the stomach and the small intestine prepared. The filled stomach was weighed, emptied, carefully cleaned and dried and reweighed. The stomach content, calculated as weight of filled subtracted by the weight of emptied stomach, indicated the degree of gastric emptying. The small intestine was straightened without force and measured in length. Then the distance from the gastric beginning of the gut to the tip of the farthest travelled intestinal content bolus was measured. The intestinal passage was given as ratio in percent of the latter distance and the total length of the small intestine.
Statistical analyses were performed with Everstat 6.0 by 1-way-ANOVA, followed by Dunnett's as post-hoc test. Dunnett's Test was applied to compare versus vehicle control. Differences were considered statistically significant at the p<0.05 level.
30 min later, the assessment of stomach contents and intestinal passage was done (FIG. 8).

Data set [9] in a line: in vivo. The following applies: mouse, plasma, sc, 1 mg/kg.
Procedure: Mice were dosed 1 mg/kg subcutaneously (s.c.). The mice were sacrificed and blood samples were collected after 0.25, 0.5, 1, 2, 4, 8, 16 and 24 hours post application. Plasma samples were analyzed after protein precipitation via liquid chromatography mass spectrometry (LC/MS). PK parameters and half-life were calculated using WinonLin Version 5.2.1 (non-compartment model).
Data set [10] in a line: in vivo. The following applies: female, Gottinger, minipig, plasma, sc, 0.1 mg/kg.
Procedure: Female Gottinger minipigs were dosed 0.1 mg/kg subcutaneously (s.c.). Blood samples were collected after 0.25, 0.5, 1, 2, 4, 8, 24, 32, 48, 56 and 72 hours post application. Plasma samples were analyzed after protein precipitation via liquid chromatography mass spectrometry (LC/MS). PK parameters and half-life were calculated using WinonLin Version 5.2.1 (non-compartment model).

Values after ≈ are worked out from the molar mass of the structure shown. Where two headings read alike, the source gives them in different places. *1 amine or outer side, *2 acyl side, *3 side chain or, on linkers, in order; H or OH if unused. Where a SMILES comes first, the peptide text is derived from it. Side-chain parts run from the residue outwards. [ ]: non-standard residue; d: D form. The star is where a group is joined. γGlu = O=C(O)[C@H](CCC(=O)[*:2])N[*:1]; Stearoyl = CCCCCCCCCCCCCCCCCC(=O)*; Aib = CC(C)(N)C(=O)O

The term EC50 denotes the concentration that produces a half-maximal response. As usually defined, the solubility is how much of the substance goes into solution per volume. Usually Cmax stands for the maximum level reached in the sampled fluid or tissue. The term half-life denotes the time in which the quantity being followed falls by half.

T1 sequence (P43220 24-463): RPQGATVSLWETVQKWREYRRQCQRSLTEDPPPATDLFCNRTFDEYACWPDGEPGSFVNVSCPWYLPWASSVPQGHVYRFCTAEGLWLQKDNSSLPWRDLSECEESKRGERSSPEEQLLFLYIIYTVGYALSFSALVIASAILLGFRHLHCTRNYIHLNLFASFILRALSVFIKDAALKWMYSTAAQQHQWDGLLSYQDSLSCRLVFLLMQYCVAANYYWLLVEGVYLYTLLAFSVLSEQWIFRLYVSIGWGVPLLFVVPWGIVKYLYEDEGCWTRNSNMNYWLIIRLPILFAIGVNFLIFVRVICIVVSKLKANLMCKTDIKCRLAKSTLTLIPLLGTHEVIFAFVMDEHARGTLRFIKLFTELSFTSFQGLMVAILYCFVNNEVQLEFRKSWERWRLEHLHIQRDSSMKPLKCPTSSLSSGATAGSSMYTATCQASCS

As for `CCCCCCCCCCCCCCCCCC(=O)N[C@@H](CCC(=O)NCCCC[C@H](NC(=O)[C@H](CCC(N)=O)NC(=O)[C@@H](NC(=O)[C@H](CO)NC(=O)[C@H](CC(C)C)NC(=O)[C@H](CC(=O)O)NC(=O)[C@H](CO)NC(=O)[C@@H](NC(=O)[C@H](Cc1ccccc1)NC(=O)[C@@H](NC(=O)CNC(=O)[C@H](CCC(=O)O)NC(=O)C(C)(C)NC(=O)[C@@H](N)Cc1ccc(O)cc1)[C@@H](C)O)[C@@H](C)O)[C@@H](C)CC)C(=O)N[C@@H](CCC(=O)O)C(=O)N[C@@H](CCC(=O)O)C(=O)N[C@@H](CCC(=O)O)C(=O)N[C@@H](C)C(=O)N[C@H](C(=O)N[C@@H](CCCNC(=N)N)C(=O)N[C@@H](CC(C)C)C(=O)N[C@@H](Cc1ccccc1)C(=O)N[C@H](C(=O)N[C@@H](CCC(=O)O)C(=O)N[C@@H](Cc1c[nH]c2ccccc12)C(=O)N[C@@H](CC(C)C)C(=O)N[C@@H](CCCCN)C(=O)N[C@@H](C)C(=O)NCC(=O)NCC(=O)N1CCC[C@H]1C(=O)N[C@@H](CO)C(=O)N[C@@H](CO)C(=O)NCC(=O)N[C@@H](C)C(=O)N1CCC[C@H]1C(=O)N1CCC[C@H]1C(=O)N1CCC[C@H]1C(=O)N[C@@H](CO)C(N)=O)[C@@H](C)CC)C(C)C)C(=O)O` [SEQ ID NO: 10, Y-Aib-E-G-T-F-T-S-D-L-S-I-Q-K(γE-x70)-EEEAVRLFIEWLKAGGPSSGAPPPS-NH2] (H-Y[Aib]EGTFTSDLSIQK([γGlu-Stearoyl])EEEAVRLFIEWLKAGGPSSGAPPPS-NH2), the EC50 in data set [1] amounted to 12.5 pM; in data set [2], 6.7 pM. Moreover, the solubility at 2 h in [3] (pH 4.5, read-out: Solubility (pH 4.5)) is 120 µg/mL (≈ 26.3 µM); in [3] (pH 7.4, read-out: Solubility (pH 7.4)) it was more than 1000 µg/mL. The “Stability (pH 4.5)” value in data set [4] (pH 4.5) amounted to 99.0%. Also, the “Stability (pH 7.4)” value in [4] (pH 7.4) is recorded as 97.0%. The metabolised at 2 h, 2 μM is 0% in data set [5] and 48% in data set [6]. Moreover, the “decrease of body weight, relative change from baseline” value worked out at 8.6% in [7] (3 μg/kg s.c. once daily) and 14.3% in data set [7] (10 μg/kg s.c. once daily). In addition, the Overall weight change was -3.6 ± 1.0 g in data set [7] (3 μg/kg s.c. once daily) and -5.5 ± 0.8 g in data set [7] (10 μg/kg s.c. once daily). Moreover, the “increase of remaining gastric contents” value in [8] (1 μg/kg s.c.) came to 1%; in [8] (10 μg/kg s.c.), 28%; in data set [8] (100 μg/kg s.c.) it was 68%. Moreover, the “reduction of intestinal passage” value in data set [8] (1 μg/kg s.c.) was found to be 28%; in [8] (10 μg/kg s.c.) it was 58%; in data set [8] (100 μg/kg s.c.), 64%. For the same compound, the Cmax in data set [9] was 5740 ng/mL; in [10], 588 ng/mL. In addition, the half-life in [9] was 4.3 h; in [10], 20.1 h.
